The values below come from paper PMC10793102 (Acta Pharmaceutica Sinica. B, 2023).

Read-outs that look alike come from different tables or passages of the source.

In one assay the test system is L929. Put plainly: Cell viability assay, protection from necroptosis in L929 cells. It is filed as cell-based, mouse. To be noted: for EC50: Mus musculus, L929, 16 h.
The test system of the next assay is FADD−/− Jurkat. As to the kind of experiment: Cell viability assay, protection from necroptosis in FADD−/− Jurkat cells. It is filed as cell-based. To be noted: Homo sapiens, 16 h.
Where [1] appears, read: read-out: EC50 FADD−/− Jurkat T + S.
Setting [2] is: read-out: EC50 FADD−/− Jurkat TNFα.

As for `CCN1CCN(Cc2ccc(NC(=O)c3ccc(-n4cnc5cc(C(=O)NC)ccc54)cc3)cc2C(F)(F)F)CC1` [compound 13], the “protective effects against cell death of L929 cells induced by TNFα” value with L929 (TNFα 40 ng/mL, 15 h, Fig. 2A) was “relatively weaker”.
Regarding `CNC(=O)c1ccc2c(c1)ncn2-c1ccc(CC(=O)N(O)Cc2ccccc2)cc1` [compound 14], the EC50 in the assay on L929 (read-out: EC50 L929 T + S) was 98 nM; in the assay with L929 (read-out: EC50 L929 TNFα), 50 nM; in the assay with FADD−/− Jurkat (setting [1]), over 10000 nM; in the assay on FADD−/− Jurkat (setting [2]), 3800 nM.
For the compound `CNC(=O)c1ccc2c(c1)ncn2-c1ccc(CNC(=O)c2n[nH]c(Cc3ccccc3)n2)cc1` [compound 15], the EC50 in the assay on FADD−/− Jurkat (setting [2]) is over 10000 nM.
Consider `CNC(=O)c1ccc2c(c1)ncn2-c1ccc(CNC(=O)c2noc(Cc3ccccc3)n2)cc1` [compound 16], for which the values for the EC50 with L929 (read-out: EC50 L929 TNFα), in the assay on FADD−/− Jurkat (setting [1]) and in the assay with FADD−/− Jurkat (setting [2]) were 962 nM, 176 nM and 24 nM, respectively.
`CNC(=O)c1ccc2c(c1)ncn2-c1ccc(CNC(=O)c2nnc(Cc3ccccc3)o2)cc1` [compound 17]: the values for the EC50 with FADD−/− Jurkat (setting [1]) and with FADD−/− Jurkat (setting [2]) were 1520 nM and 185 nM, respectively.
For the compound `CNC(=O)c1ccc2c(c1)ncn2-c1ccc(CNC(=O)c2ncc(Cc3ccccc3)o2)cc1` [compound 18], the EC50 in the assay with L929 (read-out: EC50 L929 T + S) turned out to be 3980 nM; in the assay with L929 (read-out: EC50 L929 TNFα) it was 831 nM; in the assay with FADD−/− Jurkat (setting [1]) it was 380 nM; in the assay with FADD−/− Jurkat (setting [2]), 70 nM.
For `CNC(=O)c1ccc2c(c1)ncn2-c1ccc(CNC(=O)c2nocc2Cc2ccccc2)cc1` [compound 19] the same measures were 3350 nM, 2140 nM, 113 nM and 8.1 nM.
In the case of `CNC(=O)c1ccc2ncn(-c3ccc(CNC(=O)c4cc(Cc5ccccc5)nn4C)cc3)c2c1` [compound 21], the EC50 with L929 (read-out: EC50 L929 T + S), in the assay with L929 (read-out: EC50 L929 TNFα), with FADD−/− Jurkat (setting [1]) and in the assay on FADD−/− Jurkat (setting [2]) was over 10000 nM in each case.
Take `CCn1nc(C(=O)NCc2ccc(-n3cnc4cc(C(=O)NC)ccc43)cc2)cc1Cc1ccccc1` [compound 22]: the figures for the EC50 with FADD−/− Jurkat (setting [1]) and in the assay with FADD−/− Jurkat (setting [2]) were 43 nM and 5.9 nM, respectively.
The corresponding values for `CCCn1nc(C(=O)NCc2ccc(-n3cnc4cc(C(=O)NC)ccc43)cc2)cc1Cc1ccccc1` [compound 23] are 738 nM and 109 nM.
The corresponding values for `CNC(=O)c1ccc2c(c1)ncn2-c1ccc(CNC(=O)c2cn(Cc3ccccc3)nn2)cc1` [compound 24] are 1590 nM and 233 nM.
For `CNC(=O)c1ccc2c(c1)ncn2-c1ccc(CNC(=O)c2nnn(Cc3ccccc3)n2)cc1` [compound 25] the same measures were 150 nM and 24 nM.
`CNC(=O)c1ccc2c(c1)ncn2-c1ccc(CNC(=O)c2ccc(F)n2Cc2ccccc2)cc1` [compound 26]: the EC50 was determined as 34 nM with L929 (read-out: EC50 L929 T + S), 6 nM in the assay with L929 (read-out: EC50 L929 TNFα), 17 nM in the assay on FADD−/− Jurkat (setting [1]) and 1.7 nM in the assay with FADD−/− Jurkat (setting [2]).
For `CNC(=O)c1ccc2c(ccn2-c2ccc(CNC(=O)c3cc(Cc4ccccc4)n(C)n3)cc2)c1` [compound 28] the same measures were over 10000 nM, over 10000 nM, over 10000 nM and over 10000 nM.
For `CNC(=O)c1ccc2c(cnn2-c2ccc(CNC(=O)c3cc(Cc4ccccc4)n(C)n3)cc2)c1` [compound 29] the same measures were over 10000 nM, over 10000 nM, over 10000 nM and over 10000 nM.
For `CN(C)CCNC(=O)c1ccc2c(c1)ncn2-c1ccc(CNC(=O)c2cnn(C)c2Cc2ccccc2)cc1` [compound 30] the same measures were over 10000 nM, over 10000 nM, 368 nM and 53 nM.
Regarding `CN1CCN(CCNC(=O)c2ccc3c(c2)ncn3-c2ccc(CNC(=O)c3cnn(C)c3Cc3ccccc3)cc2)CC1` [compound 31], the EC50 in the assay on L929 (read-out: EC50 L929 T + S) is over 10000 nM; with L929 (read-out: EC50 L929 TNFα), 5630 nM; in the assay with FADD−/− Jurkat (setting [1]), 0.6 nM; in the assay on FADD−/− Jurkat (setting [2]), 0.01 nM.
The corresponding values for `Cn1ncc(C(=O)NCc2ccc(-n3cnc4cc(C(=O)NCCN5CCOCC5)ccc43)cc2)c1Cc1ccccc1` [compound 32] are 190 nM, 32 nM, 3 nM and 0.5 nM.
Turning to `COc1cc2ncn(-c3ccc(CNC(=O)c4cnn(C)c4Cc4ccccc4)cc3)c2cc1OC` [compound 33], the EC50 in the assay on L929 (read-out: EC50 L929 T + S) was 0.4 nM; in the assay on L929 (read-out: EC50 L929 TNFα), 0.06 nM; with FADD−/− Jurkat (setting [1]) it was 0.1 nM; in the assay with FADD−/− Jurkat (setting [2]), 0.02 nM.
For `COc1ccc2c(c1)ncn2-c1ccc(CNC(=O)c2cnn(C)c2Cc2ccccc2)cc1` [compound 34] the same measures were 0.08 nM, 0.005 nM, 0.1 nM and 0.002 nM.
The corresponding values for `COc1ccc2ncn(-c3ccc(CNC(=O)c4cnn(C)c4Cc4ccccc4)cc3)c2c1` [compound 35] are 0.4 nM, 0.03 nM, 0.6 nM and 0.01 nM.
`COc1ccc2c(cnn2-c2ccc(CNC(=O)c3cnn(C)c3Cc3ccccc3)cc2)c1` [compound 36]: the EC50 was determined as 128 nM in the assay on FADD−/− Jurkat (setting [1]) and 18 nM with FADD−/− Jurkat (setting [2]).
For `COc1cc2ncnc(-c3ccc(CNC(=O)c4cnn(C)c4Cc4ccccc4)cc3)c2cc1OC` [compound 37] the same measures were 1500 nM and 233 nM.
Consider `Cn1ncc(C(=O)NCc2ccc(-c3ncnc4[nH]ccc34)cc2)c1Cc1ccccc1` [compound 38], for which the EC50 was over 10000 nM with L929 (read-out: EC50 L929 T + S), over 10000 nM in the assay with L929 (read-out: EC50 L929 TNFα), 747 nM in the assay with FADD−/− Jurkat (setting [1]) and 152 nM in the assay on FADD−/− Jurkat (setting [2]).
For `Cn1ncc(C(=O)NCc2ccc(-n3cnc4c(N)nccc43)cc2)c1Cc1ccccc1` [compound 40], the EC50 with L929 (read-out: EC50 L929 T + S) was 6.3 nM; in the assay on L929 (read-out: EC50 L929 TNFα) it was 1.2 nM; with FADD−/− Jurkat (setting [1]), 2.3 nM; in the assay on FADD−/− Jurkat (setting [2]), 0.3 nM.
For `Cn1ncc(C(=O)NCc2ccc(-n3ncc4c(N)ncnc43)cc2)c1Cc1ccccc1` [compound 41] the same measures were 23 nM, 9.9 nM, 6.9 nM and 0.4 nM.
In the case of `Cn1ncc(C(=O)NCc2ccc(-n3ccc4c(N)ncnc43)cc2)c1Cc1ccccc1` [compound 42], the EC50 in the assay with L929 (read-out: EC50 L929 T + S) was determined as 0.9 nM; with L929 (read-out: EC50 L929 TNFα), 0.1 nM; in the assay on FADD−/− Jurkat (setting [1]), 8 nM; in the assay on FADD−/− Jurkat (setting [2]), 4.2 nM.
For `Cn1nc(C(=O)NCc2ccc(-n3cnc4c(N)ncnc43)cc2)cc1Cc1ccccc1` [compound 43] the same measures were 384 nM, 25 nM, 0.3 nM and 0.06 nM.
With `Cn1nc(C(=O)NCc2ccc(-n3ncc4c(N)ncnc43)cc2)cc1Cc1ccccc1` [compound 44], the EC50 is 451 nM in the assay on FADD−/− Jurkat (setting [1]) and 71 nM with FADD−/− Jurkat (setting [2]).
The corresponding values for `Cn1nc(C(=O)NCc2ccc(-n3ccc4c(N)nccc43)cc2)cc1Cc1ccccc1` [compound 46] are over 10000 nM and 361 nM.
As for `Nc1ncnc2c1ncn2-c1ccc(CNC(=O)c2ccc(Cl)n2Cc2ccccc2)cc1` [compound 52], the EC50 was 80.6 nM in the assay with FADD−/− Jurkat (setting [1]) and 6.6 nM in the assay with FADD−/− Jurkat (setting [2]).
As to `N#Cc1ccc(C(=O)NCc2ccc(-n3cnc4c(N)ncnc43)cc2)n1Cc1ccccc1` [compound 53], the EC50 in the assay with FADD−/− Jurkat (setting [1]) is 1860 nM; in the assay on FADD−/− Jurkat (setting [2]) it was 214 nM.
For `Nc1ncnc2c1ncn2-c1ccc(CN2CCc3cn(Cc4ccccc4)nc3C2=O)cc1` [compound 61] the same measures were 0.4 nM and 0.3 nM.
